PMC10114980, “Triple targeting of mutant EGFR^L858R/T790M, COX-2, and 15-LOX: design and synthesis of novel quinazolinone tethered phenyl urea derivatives for anti-inflammatory and anticancer evaluation” (Journal of Enzyme Inhibition and Medicinal Chemistry, 2023)

How the values were obtained:
[1] = target: T1, double mutant EGFR^L858R/T790M (Homo sapiens, UniProt P00533, L858R/T790M); experiment: In vitro EGFR inhibition assay, double mutant; format: biochemical; settings: for IC50: double mutant EGFR
T1 construct: purchased AssayQuant Technologies, Inc. (Marlboro, MA, USA)

BT-549 = experiment: NCI single dose screen, BT-549; format: cell-based; settings: Homo sapiens; BT-549, breast cancer; single dose 10^−5 M; read-out: growth inhibition percentage
Method: (§1) Screening of the anticancer activity of the newly synthesised compounds (6a, 6c, 6d, 6e, 6j, 6l, 6m, 6n, 6o, and 6p) was performed by the US National Cancer Institute (NCI) using 60 different human tumour cell lines in accordance with standard procedures formerly reported.
(§2) In vitro anticancer screening was carried out for the selected compounds at a single dose (10^−5 M) against 60 different human tumour cell lines of nine different cancer cell types: leukaemia, lung, colon, CNS, melanoma, ovarian, renal, prostate, and breast cancers.

UO-31 = experiment: NCI single dose screen, UO-31; format: cell-based; settings: Homo sapiens; UO-31, renal cancer; single dose 10^−5 M; read-out: growth inhibition percentage
Method: as §1, §2

SF-295 = experiment: NCI single dose screen, SF-295; format: cell-based; settings: Homo sapiens; SF-295, CNS cancer; single dose 10^−5 M; read-out: growth inhibition percentage
Method: as §1, §2

SK-MEL-28 = experiment: NCI single dose screen, SK-MEL-28; format: cell-based; settings: Homo sapiens; SK-MEL-28, melanoma; single dose 10^−5 M; read-out: growth inhibition percentage
Method: as §1, §2

RXF 393 = experiment: NCI single dose screen, RXF 393; format: cell-based; settings: Homo sapiens; RXF 393, renal cancer; single dose 10^−5 M; read-out: growth inhibition percentage
Method: as §1, §2

MDA-MB-468 = experiment: NCI single dose screen, MDA-MB-468; format: cell-based; settings: Homo sapiens; MDA-MB-468, breast cancer; single dose 10^−5 M; read-out: growth inhibition percentage
Method: as §1, §2

SF-539 = experiment: NCI single dose screen, SF-539; format: cell-based; settings: Homo sapiens, read-out: growth inhibition percentage
Method: as §1, §2

[2] = test system: LPS-induced NO production in RAW 264.7 cells; experiment: NO production in LPS-activated RAW 264.7 macrophage cells (DAF-FM diacetate); format: cell-based; settings: Mus musculus, RAW264.7; LPS-activated RAW 264.7 cells; mean ± SEM, three replicates
Method: TNF-α and IL-6 production were detected in RAW 264.7 macrophage cell culture supernatants following the induction of inflammation by LPS. Moreover, the probes of oxidative species 2,7-dichlorofluorescein diacetate (DCFH-DA) (Molecular Probes) and NO, 4-amino-5-methylamino-2,7-difluorofluorescein diacetate (DAF-FM diacetate) (Molecular Probes) were used to investigate the antioxidant and NO production inhibitory potential of the test compounds. Briefly, RAW 264.7 cells were cultured in black 96 well plates (200 000 cells/mL, 100 µl/well) for 24 h followed by the incubation with the individual test compounds or the reference drugs at different concentrations (12.5, 25, 50, and 100 µM) for 2 h at 37 °C. LPS was then added at a final concentration of 1 µg/mL for an additional 18 h. The cell culture supernatant was collected from cells treated with the different compounds at 25 µM to measure TNF-α and IL-6 levels (1:10 dilution) using DuoSet ELISA kits (R&D Systems, Minneapolis, MN) following the manufacturer’s instructions. Then, the plates were washed to perform ROS and NO detection assays as detailed in our previous studies[16]^,[27].

OVCAR-4 = experiment: NCI single dose screen, OVCAR-4; format: cell-based; settings: Homo sapiens; OVCAR-4, ovarian cancer; single dose 10^−5 M; read-out: growth inhibition percentage
Method: as §1, §2

HCC-2998 = experiment: NCI single dose screen, HCC-2998; format: cell-based; settings: Homo sapiens; HCC-2998, colon cancer; single dose 10^−5 M; read-out: growth inhibition percentage
Method: as §1, §2

[3] = test system: LPS-induced IL-6 production in RAW 264.7 cells; experiment: IL-6 production in LPS-activated RAW 264.7 cells (ELISA); format: cell-based; settings: LPS-activated RAW 264.7 cells treated with 25 µM of the compound
UACC-62 = experiment: NCI single dose screen, UACC-62; format: cell-based; settings: Homo sapiens; UACC-62, melanoma; single dose 10^−5 M; read-out: growth inhibition percentage
Method: as §1, §2

MDA-MB-231/ATCC = experiment: NCI single dose screen, MDA-MB-231/ATCC; format: cell-based; settings: Homo sapiens, breast cancer, single dose 10^−5 M, read-out: growth inhibition percentage
Method: as §1, §2

SK-OV-3 = experiment: NCI single dose screen, SK-OV-3; format: cell-based; settings: Homo sapiens; SK-OV-3, ovarian cancer; single dose 10^−5 M; read-out: growth inhibition percentage
Method: as §1, §2

SNB-19 = experiment: NCI single dose screen, SNB-19; format: cell-based; settings: Homo sapiens; SNB-19, CNS cancer; single dose 10^−5 M; read-out: growth inhibition percentage
Method: as §1, §2

K-562 = experiment: NCI single dose screen, K-562; format: cell-based; settings: Homo sapiens, K562; K-562, leukaemia; single dose 10^−5 M; read-out: growth inhibition percentage
Method: as §1, §2

HT29 = experiment: NCI single dose screen, HT29; format: cell-based; settings: Homo sapiens, HT-29; HT29, colon cancer; single dose 10^−5 M; read-out: growth inhibition percentage
Method: as §1, §2

SK-MEL-5 = experiment: NCI single dose screen, SK-MEL-5; format: cell-based; settings: Homo sapiens; SK-MEL-5, melanoma; single dose 10^−5 M; read-out: growth inhibition percentage
Method: as §1, §2

HS 578T = experiment: NCI single dose screen, HS 578T; format: cell-based; settings: Homo sapiens, breast cancer, single dose 10^−5 M, read-out: growth inhibition percentage
Method: as §1, §2

SR = experiment: NCI single dose screen, SR; format: cell-based; settings: Homo sapiens, leukaemia, single dose 10^−5 M, read-out: growth inhibition percentage
Method: as §1, §2

RPMI-8226 = experiment: NCI single dose screen, RPMI-8226; format: cell-based; settings: Homo sapiens; RPMI-8226, leukaemia; single dose 10^−5 M; read-out: growth inhibition percentage
Method: as §1, §2

EKVX = experiment: NCI single dose screen, EKVX; format: cell-based; settings: Homo sapiens, non-small cell lung cancer, single dose 10^−5 M, read-out: growth inhibition percentage
Method: as §1, §2

MCF7 = experiment: NCI single dose screen, MCF7; format: cell-based; settings: Homo sapiens; MCF7, breast cancer; single dose 10^−5 M; read-out: growth inhibition percentage
Method: as §1, §2

PC-3 = experiment: NCI single dose screen, PC-3; format: cell-based; settings: Homo sapiens; PC-3, prostate cancer; single dose 10^−5 M; read-out: growth inhibition percentage
Method: as §1, §2

T1 sequence (P00533 25-1210 T790M/L858R): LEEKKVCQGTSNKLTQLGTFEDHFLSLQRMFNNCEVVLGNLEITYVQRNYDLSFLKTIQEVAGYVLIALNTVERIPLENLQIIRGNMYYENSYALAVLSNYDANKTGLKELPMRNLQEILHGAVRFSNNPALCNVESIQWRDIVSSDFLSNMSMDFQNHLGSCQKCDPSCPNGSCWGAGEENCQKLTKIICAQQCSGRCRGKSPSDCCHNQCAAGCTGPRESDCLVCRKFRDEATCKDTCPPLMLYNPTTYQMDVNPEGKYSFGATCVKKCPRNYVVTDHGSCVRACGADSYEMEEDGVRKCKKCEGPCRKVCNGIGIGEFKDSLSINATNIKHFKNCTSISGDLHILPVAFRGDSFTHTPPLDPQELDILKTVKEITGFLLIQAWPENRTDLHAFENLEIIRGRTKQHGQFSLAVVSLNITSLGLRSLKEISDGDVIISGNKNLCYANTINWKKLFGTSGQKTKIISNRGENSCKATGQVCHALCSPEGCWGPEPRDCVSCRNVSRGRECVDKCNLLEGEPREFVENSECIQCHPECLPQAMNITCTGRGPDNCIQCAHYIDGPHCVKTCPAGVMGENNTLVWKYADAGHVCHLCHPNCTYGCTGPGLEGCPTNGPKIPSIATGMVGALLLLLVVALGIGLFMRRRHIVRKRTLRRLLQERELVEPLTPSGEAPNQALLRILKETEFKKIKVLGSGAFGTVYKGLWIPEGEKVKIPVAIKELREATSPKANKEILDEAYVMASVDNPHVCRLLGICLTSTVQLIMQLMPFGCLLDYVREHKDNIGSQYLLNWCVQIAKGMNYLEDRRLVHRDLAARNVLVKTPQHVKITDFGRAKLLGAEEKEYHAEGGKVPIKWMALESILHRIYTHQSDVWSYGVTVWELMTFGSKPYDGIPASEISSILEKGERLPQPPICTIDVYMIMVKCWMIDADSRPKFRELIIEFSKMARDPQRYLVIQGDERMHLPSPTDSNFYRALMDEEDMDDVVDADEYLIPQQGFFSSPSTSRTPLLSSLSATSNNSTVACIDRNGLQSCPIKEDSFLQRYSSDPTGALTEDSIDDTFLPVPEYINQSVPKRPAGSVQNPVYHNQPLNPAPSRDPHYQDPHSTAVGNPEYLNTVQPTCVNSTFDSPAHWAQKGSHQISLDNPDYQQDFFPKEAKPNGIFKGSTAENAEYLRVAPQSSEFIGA

Row | SMILES | IC50 [1] [µM] | inhibition at 10 µM (BT-549) [%] | inhibition at 10 µM (UO-31) [%] | inhibition at 10 µM (SF-295) [%] | inhibition at 10 µM (SK-MEL-28) [%] | inhibition at 10 µM (RXF 393) [%] | inhibition at 10 µM (MDA-MB-468) [%] | inhibition at 10 µM (SF-539) [%] | IC50 [2] [µM] | inhibition at 10 µM (OVCAR-4) [%] | inhibition at 10 µM (HCC-2998) [%] | IL-6 concentration [3] [pg/mL] | inhibition at 10 µM (UACC-62) [%] | inhibition at 10 µM (MDA-MB-231/ATCC) [%] | inhibition at 10 µM (SK-OV-3) [%] | inhibition at 10 µM (SNB-19) [%] | inhibition at 10 µM (K-562) [%] | inhibition at 10 µM (HT29) [%] | inhibition at 10 µM (SK-MEL-5) [%] | inhibition at 10 µM (HS 578T) [%] | further results
1 | CC1N(NC(=O)Nc2ccc(F)cc2)C(=O)c2ccccc2N1C (centres unmarked) [Compound 6l, 1–(1,2-Dimethyl-4-oxo-1,4-dihydroquinazolin-3(2H)-yl)-3-(4-fluorophenyl)urea] | 17 ± 1.4 | < 10 | < 10 | < 10 | < 10 | < 10 | < 10 | < 10 | 5.24 ± 0.5 | < 10 | < 10 | 536.8 ± 3.55 | < 10 | < 10 | < 10 | < 10 | < 10 | < 10 | < 10 | < 10 | Selectivity (SI) ([1]; ratio of the IC50 values EGFR^WT/EGFR^L858R/T790M): >5.8; inhibition at 10 µM (SR): < 10%; inhibition at 10 µM (RPMI-8226): < 10%; inhibition at 10 µM (EKVX): < 10%; inhibition at 10 µM (MCF7): 10.7%; melting point: 187 to 190 °C; inhibition at 10 µM (PC-3): < 10%
2 | CN1c2ccccc2C(=O)N(NC(=O)Nc2ccc(F)cc2)C1c1ccccc1 (centres unmarked) [Compound 6m, 1-(4-Fluorophenyl)-3-(1-methyl-4-oxo-2-phenyl-1,4-dihydroquinazolin-3(2H)-yl)urea] | 4.07 ± 3.7 | < 10 | 40.1 | < 10 | < 10 | < 10 | < 10 | < 10 | 10.3 ± 0.27 | 10.8 | < 10 | 290.7 ± 5.5 | 20.7 | 23 | < 10 | < 10 | < 10 | < 10 | 15.9 | < 10 | inhibition at 10 µM (SR): < 10%; inhibition at 10 µM (RPMI-8226): 16.1%; inhibition at 10 µM (EKVX): 10.5%; inhibition at 10 µM (MCF7): 21.2%; melting point: 220 to 222 °C; inhibition at 10 µM (PC-3): 22.1%
